Source: patent publication US10980824B2, “Pharmaceutical composition comprising quercetin-3-O-β-D-xylopyranoside for preventing or treating liver disease” (Hongcheon Institute of Medical Herb, priority 2016, dated 2021)

How the values were obtained:
Format in all cases: in vivo, C57BL/6N mice
[1] = Body weight, feed intake and excised organ weight of alcoholic steatosis-induced mice; conditions: 1 mg/kg oral 10 days; conclusion from body and organ weights
Description: (§1) 8-week-old C57BL/6N mice were purchased from DAEHAN BIOLINK to be used for efficacy evaluation and quarantined and acclimated in a vivarium of HONGCHEON INSTITUTE OF MEDICAL HERB for 7 days (relative temperature: 23±2° C., relative humidity: 50±5%, and a 12 h light-dark cycle) prior to the start of experimentation. Among them, 18 male mice with no abnormal symptoms were selected and used.
(§2) During a liquid diet adaptation period, a control group was restrictedly fed with a Lieber-DeCarli'82 control liquid diet (F1259SP, Bio-serv), and an alcohol-fed group was restrictedly fed with a Lieber-DeCarli'82 ethanol liquid diet (F1258SP, Bio-serv) using a Liquid diet feeding tube (9019, Bio-serv), and the diets were replaced with new ones at a preset time between 3 P.M. and 5 P.M.
After 5 days of the liquid diet adaptation period, the mice were orally administered with 1 mg/kg of quercetin-3-O-β-D-xylopyranoside (test substance) for 10 days and fed with a 5% alcohol liquid diet. At 11th day, between 7 A.M. and 9 A.M., a group not fed with alcohol (hereinafter referred to as Pair-fed group) was orally administered with a 45% maltose dextrin solution, and a group fed with a 5% liquid diet (hereinafter referred to as EtOH-fed) and a group administered with a test substance (hereinafter referred to as EtOH+B group) were orally fed with 31.5% ethanol.
2-1. […]

[2] = test system: alcoholic steatosis-induced mice; experiment: Progression of hepatic fibrosis in reticular fibers by Gomori Reticulum staining; conditions: 1 mg/kg oral 10 days; EtOH+B vs EtOH-fed (FIG. 9)
Description: as §1, §2
After 5 days of the liquid diet adaptation period, the mice were orally administered with 1 mg/kg of quercetin-3-O-β-D-xylopyranoside (test substance) for 10 days and fed with a 5% alcohol liquid diet. At 11th day, between 7 A.M. and 9 A.M., a group not fed with alcohol (hereinafter referred to as Pair-fed group) was orally administered with a 45% maltose dextrin solution, and a group fed with a 5% liquid diet (hereinafter referred to as EtOH-fed) and a group administered with a test substance (hereinafter referred to as EtOH+B group) were orally fed with 31.5% ethanol. […]

Fas gene = experiment: Real-time PCR of lipid metabolism gene expression in liver: Fas; conditions: liver mRNA, relative to Pair-fed group; EtOH+B group, 1 mg/kg oral 10 days (FIG. 11)
Description: as §1
(§3) During a liquid diet adaptation period, a control group was restrictedly fed with a Lieber-DeCarli'82 control liquid diet (F1259SP, Bio-serv), and an alcohol-fed group was restrictedly fed with a Lieber-DeCarli'82 ethanol liquid diet (F1258SP, Bio-serv) using a Liquid diet feeding tube (9019, Bio-serv), and the diets were replaced with new ones at a preset time between 3 P.M. and 5 P.M. […]
(§4) Real-time quantitative PCR was performed using a 7500 Real-time Thermal Cycler (Applied Biosystems, USA) with SYBR Green (Applied Biosystems, USA) to measure gene expression. […]
(§5) PCR amplification steps as described below were repeated for up to 40 cycles. […] Values were recorded after extension at every cycle.
(§6) After completion of all cycles, melting curve analysis was carried out to verify specificity of the primers. The results were analyzed using the One step system software v2.1 provided by Applied Biosystems.

Fabp gene = experiment: Real-time PCR of lipid metabolism gene expression in liver: Fabp; conditions: liver mRNA, relative to Pair-fed group; EtOH+B group, 1 mg/kg oral 10 days (FIG. 11)
Description: as §1, §3, §4, §5, §6

adiponectin = experiment: Effect on recovering adiponectin in alcoholic steatosis mice; conditions: alcohol+compound group vs alcohol-fed group (FIG. 13)
Description: Adiponectin, which is a major anti-inflammatory agent, is an adipose tissue-derived adipokine. […] Thus, a plasma level of adiponectin was analyzed by ELISA to evaluate the effect of quercetin-3-O-β-D-xylopyranoside on regulation of the adiponectin content.
Specifically, the plasma level of adiponectin was analyzed by using RT-PCR and ELISA in the same manner as the measurement of the TNF-α level in liver tissue as described above in Example 2-8.

IL-1β = experiment: mRNA level of IL-1β by RT-PCR; conditions: alcohol+compound group vs alcohol-fed group (FIG. 14)
Description: Monocyte chemoattractant protein 1 (MCP-1), called chemokine ligand 2 (CCL2), is one of the key chemokines that regulate pathogeneses of several diseases caused by monocyte infiltration. Meanwhile, interleukin 1 beta (IL1β), also known as a leukocytic endogenous mediator and a lymphocyte activating factor, is a member of the interleukin 1 family of cytokines. The cytokines are produced by activated macrophages at a damaged region of tissue.
Specifically, mRNA levels of MCP-1 and IL-1β were analyzed by using RT-PCR as described above in Example 2-8.

CPT-1 = experiment: Western blot of CPT-1 in liver tissue; conditions: compound group vs alcohol-fed group
Description: Expression of p-AMPKα, p-ACC, and CPT-1, which regulate intrahepatic lipid metabolism, was analyzed by western blot analysis to understand the mechanism involved in pathogenesis of alcoholic steatosis in detail. The specific western blot analysis method is as follows.
First, a mouse liver homogenate was prepared by using a RIPA buffer solution including a protease and tyrosine phosphatase inhibitor cocktail (Sigma). Protein concentrations of lysates were determined using a Bicinchoninic (BCA) Protein Assay Kit (Thermo Scientific, IL, USA) according to the manufacturer's instructions. Isolated soluble proteins ([…]) were separated on an 8% to 15% SDS-polyacrylamide gel. The separated proteins were electroblotted on a nitrocellulose transfer membrane (Bio-Rad, Hercules, Calif., USA). The membrane was incubated with 5% non-fat dry milk for 1 hour and then probed for antigens using antibodies diluted to 1:1,000, and was incubated with anti-pAMPKα, anti-AMPKα, anti-PACC, anti-ACC, anti-CYP2E1, anti-CPT1a (Cell Signaling Technology), and anti-β-actin (Santa Cruz Biotechnology) at 4° C. for 18 hours. […] Band density was measured using ImageJ (National Institutes of Health, Bethesda, Md., USA) and expressed as a multiple relative to β-actin.

Q: For `O=c1c(O[C@@H]2OC[C@@H](O)[C@H](O)[C@H]2O)c(-c2ccc(O)c(O)c2)oc2cc(O)cc(O)c12` [quercetin-3-O-β-D-xylopyranoside], which “toxicity to mice and internal organs” value [1] is on record?
A: The value was “no toxicity”.

Q: What about the “progression of hepatic fibrosis in reticular fibers” value [2] of the same compound?
A: The value was “suppressed”.

Q: What about the “expression level of the Fas gene” value (Fas gene) of the same compound?
A: Its value is 1.1 times.

Q: And the “expression level of the Fabp gene” value (Fabp gene)?
A: The value was 0.7 times.

Q: And the plasma adiponectin level (adiponectin)?
A: Its plasma adiponectin level is “significantly recovered”.

Q: What about the “mRNA level of IL-1β” value (IL-1β) of the same compound?
A: The value was “significantly reduced”.

Q: And the CPT-1 level (CPT-1)?
A: Its CPT-1 level is “significantly restored”.
